Reference: patent publication US20050069907A1, “Methods for using double-mutant RNA polymerases with reduced discrimination between non-canonical and canonical nucleoside triphosphates” (priority 2002, published 2005)

System: Bgl II-cut pPK5
Assay: Run-off transcription with 2′-OMe- or 2′-azido-NTPs on Bgl II-cut pPK5
Assay type: biochemical
Procedure: RNAPs were prepared as described (Brieba, L G, and Sousa, R. Biochemistry, 39: 919-923, 2000). Transcription reactions were carried out for 30 min. at room temperature in 40 mM Tris-Cl, pH 8.0, 6 mM MgCl2, 10 mM NaCl, 2 mM spermidine, with templates at 10^−7 M and RNAPs at 2×10^−7 M. All NTPs were used at 0.5 mM, and transcripts were labeled by inclusion of 1% v/v 800 Ci/mM […] in the reaction. Modified NTPs were from Trilink Biotechnologies. Reactions were stopped by addition of an equal volume of 90% formamide, 50 mM EDTA, 0.01% xylene cyanol, resolved by electrophoresis in 20% acrylamide, 1% bis-acrylamide, 1×TBE gels, and visualized on a Molecular Dynamics Phosphorimager.
The ability of the wild-type, Y639F and Y639F/H784A mutants to utilize 2′-OMe-UTP and 2′-OMe-CTP, and 2′-azido-UTP and 2′-azido-CTP in RNA synthesis was tested. On a Bgl II-cut pPK5 (Mentesanas, P. E., et al., “Characterization of Bacteriophage T7 RNA Polymerase Elongation Complexes,” J. Mol. Biol. 302:1049-1062, 2000) template in which CTP and UTP are first incorporated at +14 and +15, respectively, the wild-type enzyme can synthesize 34 nucleotide (nt) run-off transcripts in reactions in which UTP is replaced with 2′-OMe-UTP (FIG. 2a, lane 2) or in reactions in which CTP is replaced with 2′-OMe-CTP (FIG. 2a, lane 3). Relative to the reaction with 4 NTPs (FIG. 2a, lane 1), yields of run-off transcripts are reduced 6-fold and 21-fold in the 2′-OMe-UTP and 2′-OMe-CTP reactions, respectively. When both UTP and CTP are replaced with the corresponding 2′-OMe-NTPs, run-off transcription with the wild-type enzyme is undetectable (FIG. 2a, lane 4). Terminated transcripts are seen in these reactions at positions where 2′-OMe-UMP or 2′-OMe-CMP are incorporated (FIG. 2a, lanes 2-4). The Y639F mutation enhances utilization of the 2′-OMe-NTPs: relative to reactions with 4 NTPs (FIG. 2a, lane 5) runoff transcription with Y639F is reduced, respectively: 2-fold, 8-fold, and 55-fold in reactions with 2′-OMe-UTP, 2′-OMe-CTP, or both (FIG. 2a, lanes 6-8). With the Y639F/H784A double mutant the reduction in run-off transcript synthesis is <15% in reactions with 2′-OMe-UTP (FIG. 2a, lane 10), and only 3-fold and 6-fold in reactions with, respectively, 2′-OMe-CTP or both 2′-OMe-UTP and 2′-OMe-CTP (FIG. 2a, lanes 11, 12).
Identical experiments were carried out with 2′-azido-UTP or 2′-azido-CTP replacing UTP or CTP, respectively (FIG. 2b). With the wild-type enzyme, run-off transcription was reduced 15- and 50-fold in reactions with 2′-azido-UTP or 2′-azido-CTP, respectively (FIG. 2b; lanes 2, 3), and was undetectable in reactions with both 2′-azido-UTP and 2′-azido-CTP (FIG. 2b; lane 4). With Y639F, use of 2′-azido-UTP or 2′-azido-CTP reduced run-off transcription by 70% (FIG. 2b; lanes 6, 7) compared to reactions with 4 NTPs (FIG. 2b; lane 5), while use of both 2′-azido-UTP and 2′-azido-CTP reduced runoff transcription by 11-fold (FIG. 2b, lane 8). With Y639F/H784A use of a single azido-modified NTP reduced run-off transcription by only 40% (FIG. 2b; lanes 10, 11), while use of two 2′-azido-NTPs reduced it by 3-fold (FIG. 2b; lane 12).

[1] = both 2′-azido-UTP and 2′-azido-CTP

| Substance | Reduction of run-off transcript yield relative to 4 NTPs (2′-OMe-CTP replacing CTP) [fold] | Reduction of run-off transcript yield relative to 4 NTPs (2′-OMe-UTP replacing UTP) [fold] | Reduction of run-off transcription (2′-azido-CTP replacing CTP) [fold] | Reduction of run-off transcription (2′-azido-UTP replacing UTP) [fold] | Reduction of run-off transcript yield relative to 4 NTPs (both 2′-OMe-UTP and 2′-OMe-CTP) | Reduction of run-off transcription [1] | Reduction of run-off transcription (single azido-modified NTP (2′-azido-UTP or 2′-azido-CTP)) [%] |
| --- | --- | --- | --- | --- | --- | --- | --- |
| W.T.: wild-type T7 RNA polymerase [reference compound] | 21 | 6 | 50 | 15 | undetectable | undetectable | – |
| Y639F: T7 RNAP with wild-type tyrosine at position 639 substituted by phenylalanine | 8 | 2 | – | – | 55 fold | 11 fold | 70 |
